{
  "source": "BigSolDB 2.1",
  "data": [
    {"smiles": "C=C[C@]1(C)C[C@@H](OC(=O)CSC(C)(C)CNC(=O)[C@H](N)C(C)C)[C@]2(C)[C@H](C)CC[C@]3(CCC(=O)[C@H]32)[C@@H](C)[C@@H]1O.Cl", "values": [
      {"measurement": "solubility (mole fraction)", "setting": "in ethanol, 278.15 K", "value": 0.0309},
      {"measurement": "solubility (mole fraction)", "setting": "in ethanol, 283.15 K", "value": 0.038},
      {"measurement": "solubility (mole fraction)", "setting": "in ethanol, 288.15 K", "value": 0.0432},
      {"measurement": "solubility (mole fraction)", "setting": "in ethanol, 293.15 K", "value": 0.0506},
      {"measurement": "solubility (mole fraction)", "setting": "in ethanol, 298.15 K", "value": 0.0601},
      {"measurement": "solubility (mole fraction)", "setting": "in ethanol, 303.15 K", "value": 0.0713},
      {"measurement": "solubility (mole fraction)", "setting": "in ethanol, 308.15 K", "value": 0.0837},
      {"measurement": "solubility (mole fraction)", "setting": "in ethanol, 313.15 K", "value": 0.101},
      {"measurement": "solubility (mole fraction)", "setting": "in water, 278.15 K", "value": 0.00162},
      {"measurement": "solubility (mole fraction)", "setting": "in water, 283.15 K", "value": 0.00321},
      {"measurement": "solubility (mole fraction)", "setting": "in water, 288.15 K", "value": 0.00545},
      {"measurement": "solubility (mole fraction)", "setting": "in water, 293.15 K", "value": 0.00853},
      {"measurement": "solubility (mole fraction)", "setting": "in water, 298.15 K", "value": 0.0135},
      {"measurement": "solubility (mole fraction)", "setting": "in water, 303.15 K", "value": 0.0214},
      {"measurement": "solubility (mole fraction)", "setting": "in water, 308.15 K", "value": 0.0344},
      {"measurement": "solubility (mole fraction)", "setting": "in water, 313.15 K", "value": 0.0486}
    ]}
  ]
}
